According to US20250161244A1 (UNION HOSPITAL, TONGJI MEDICAL COLLEGE, HUAZHONG UNI. OF …, priority 2023, published 2025):

System: LX-2 cells (human HSCs)
Assay: CCK8 experiment, proliferation of LX-2 cells
Assay type: cell-based
Conditions: 48 h incubation, CCK-8; tested at 2.5 μM and 5 μM

CC1=C(/C=C/C(C)=C/C=C/C(C)=C/CO)C(C)(C)CCC1 [VA, vitamin A]
inhibitory effect on LX-2 cells proliferation: no inhibitory effect
